The values that follow come from patent publication US10822317B2, “Methods and compositions for wound healing” (QBiotics Limited, priority 2013, dated 2020).

Experiment [1] relates to human neonatal fibroblasts. Put plainly: Matrigel invasion assay for migratory ability. In kind it is cell-based. Conditions: 30 ng/mL; 24 hrs; fibroblasts starved 2 days, 1% foetal calf serum; ± standard deviation, two replicate experiments. An excerpt: Matrigel invasion chambers provide cells with the conditions that allow assessment of their invasive property in vitro. The Matrigel invasion chambers consists of a cell culture companion plate with cell culture inserts containing an 8 micron pore size PET membrane with a thin layer of Matrigel Basement Membrane Matrix. The Matrigel matrix serves as a reconstituted basement membrane in vitro. The layer occludes the pores of the membrane, blocking non-invasive cells from migrating through the membrane. In contrast, invasive cells are able to detach themselves from and invade through the Matrigel matrix and the 8 micron membrane pores. The membrane may be processed for light and electron microscopy and can be easily removed after staining.
The chambers were used according to the manufacturer's instructions, as described below in two studies, to assess the effects of Compounds 1, 2, 5 and 42 on migration of human neonatal fibroblasts. The first study assessed effects of three concentrations (0, 10 and 30 ng/mL) of Compound 1 on neonatal fibroblasts in wells containing media with 10% foetal calf serum. The second study used two concentrations (0 and 30 ng/mL) for each of Compounds 1, 2, 5 and 42 to examine effects on migration of neonatal fibroblasts starved for 2 days prior to treatment and then transferred to media with 1% foetal calf serum.
The package containing the chambers was removed from −20° C. storage and allowed to come to room temperature. Warm (37° C.) bicarbonate based culture medium was added to the interior of the inserts (500 μL) and bottom of wells (750 μL). The chambers containing the Matrigel were allowed to rehydrate for 2 hours in humidified tissue culture incubator, 37° C., 5% CO2 atmosphere. After rehydration, the medium was carefully removed by aspiration without disturbing the layer of Matrigel™ Matrix on the membrane.
Cells were harvested, and resuspended at 20,000 cells per mL. A total of 250 μL of the cell suspension was placed into the interior of the insert (5,000 cells). An extra 250 μL media containing the respective Compounds was then added to the interior of the insert to give the desired final concentrations for each of the two studies. A total of 750 μL of media containing appropriate concentrations of each compound in each treatment were placed in the well under the appropriate insert. The Matrigel chambers were then incubated for 24 hours in a humidified tissue culture incubator, at 37° C., 5% CO2 atmosphere.
Non-invading cells were removed from the upper surface of the membrane by “scrubbing”. A cotton tipped swab was dipped into the insert after removal of the media, and firm pressure applied while the tip was moved over the membrane surface. The scrubbing was repeated with a second swab moistened with PBS. Cells that had invaded to the external surface of the insert were then fixed by placing in […] of 100% methanol for at least 5 mins. Inserts were then transferred to a companion plate containing 500 μL of 0.1% crystal violet in methanol, and stained for at least 15 mins. Inserts were destained by passage through 3 companion plates containing 500 μL water, before being air dried.
The following day, the membrane was removed from the insert housing by inverting the insert and inserting the tip of a sharp scalpel blade through the membrane at the edge adjacent to the housing wall. The insert housing was rotated against the stationary blade and the membrane was released. […]

In experiment [2] the test system is human peripheral blood monocytes. Put plainly: Differentiation of monocytes into macrophages. It counts as cell-based. Particulars: 10-fold dilutions; 4 days; adherence and morphology. The method, then:
To determine potential effects of Compound 1 and fifteen other epoxy-tigliane compounds in the array on monocyte differentiation, human peripheral blood mononuclear cells (PBMCs) were isolated by Ficoll-Paque sedimentation of heparinised blood from a human donor, and plated at 100,000 cells/well in RPMI-1640 10% FCS. Duplicate wells were treated with 10-fold dilutions of the compounds and incubated at 37° C. for 4 days. The wells were scored visually for cell attachment and morphology, then washed twice with PBS, stained with sulfurhodamine and the incorporate stain quantitated in an ELISA reader. The plates were then washed with water and stained with 1% crystal violet in methanol for photography and scoring of adherent cell morphology.

Experiment [3] relates to human peripheral blood mononuclear cells (PBMCs). Put plainly: Cytokine production by PBMCs (Cytometric Bead Array). Particulars: 24 hr, ± standard deviation. It counts as cell-based. An excerpt: Specific cytokines play critical roles in wound healing processes, and agents that modulate these substances may be useful in treating wounds and/or improving the cosmetic outcomes of healing (e.g. reduced scarring). The effects of Compounds 1, 2, 5 and 42 on regulation of four cytokines (IL-1β, IL-6, IL-8 and TNFα) known to be critical in early stages of the wound healing process were investigated in human peripheral blood mononuclear cells (PBMCs).
PBMCs were isolated by Ficoll-Paque sedimentation of heparinised blood acquired from both a person (Donor 1) and (Donor 2) human donor. All cells were cultured in 10% FCS, RPMI as detailed previously.
PBMCs were seeded at a density of 1.5×10^5 cells per well in 10% FCS, RPMI. Stimulation of these cells with the four compounds was performed at four concentrations (0 ng/mL, 3 ng/mL, 30 ng/mL, 300 ng/mL) in duplicate for 24 h in a humidified incubator at 37° C., 5% CO2. Media samples were taken from each of the required wells and frozen at −80° C. until use.
Cytometric Bead Array (CBA) assays were used to measure the results. CBA assays provide a method for capturing a soluble analyte or set of analytes using antibody coated beads of known sizes and fluorescence. Detection is then performed using another fluorescently labelled secondary antibody to form a sandwich complex. Each media sample was assayed for the presence of soluble […], IL-6, IL-8, IL-10, IL-12p70 and TNFα using a BD (Becton Dickinson) CBA Human Inflammatory Cytokine Detection Kit according to manufacturers' instructions. Mean fluorescence intensity values from each sample were compared against a standard curve to determine cytokine concentrations (pg/mL).

The test system of a further experiment is mouse skin. Put plainly: Acute inflammatory response in mouse skin. In kind it is in vivo. Conditions: male nude mice, s.c. 50 μL of 100 μg/mL; for scarring of the healed site: 14 days; for diameter of affected area of skin: by 24 hr. How it is done:
Male nude mice were injected subcutaneously on each flank with 50 μL of solutions of 100 μg/mL of Compounds 1, 2, 5 and 42 respectively in 20% propylene glycol. Each site reddened within 4 hr and by 24 hr the affected area covered approximately 1 cm diameter of skin.

Experiment [4] has as its system human neonatal fibroblasts. Put plainly: Scratch closure, human neonatal fibroblasts, Method 2. It counts as cell-based. How it is done:
(§1) The ability of early. passage neonatal foreskin fibroblasts (NFF) cultured in RPMI 1640-10% foetal calf serum to migrate across a scratch wound made in a confluent monolayer following treatment with purified compounds or plant extracts was determined using one or more of the following three methods.
Cells were seeded in 6 mm wells (96-well plates) or 16 mm (24-well plates), with 2 to 6 replicate wells/dilution, and treated as in Method 1. Immediately after treatment, the scratch edges were outlined on the underside of the well with a fine point felt pen. After fixing and staining, migration was assessed under the microscope with the aid of a graticule, scoring migration as 0, 25, 50, 75 or 100% (total closure) of the initial width. Accelerated wound closure was considered to be significant if mean quartile of replicates was […] that of untreated controls (p<0.05, t-test). In addition, “wound” areas were created by seeding cells in the presence of 3 mm stainless steel pins (96-well plate), or by inserting flat-edged Teflon rings. These devices were removed after overnight incubation of the NFF cells.

In experiment [5] the test system is human neonatal fibroblasts. Put plainly: Scratch closure, human neonatal fibroblasts, Method 3 (IncuCyte). In kind it is cell-based. The method, then: as §1
Cells were seeded and treated in 96-well plates as in Method 2 (5 replicate wells per dilution), except that the scratches were made in one action with a tool having 96, 1 mm thick teflon coated pins (Essen Bioscience Woundmaker). The plate was then placed in a 37° C., 5% CO2 humidified atmosphere in an IncuCyte FLR instrument programmed to photograph each well under phase contrast at 3 hr intervals for 42 hours. The software determined the initial scratch boundaries and their rate of closure. Accelerated wound closure was considered to be significant if the initial rate of closure was >10% of the untreated controls.

Take “12,13-di-hexanoyl-6,7-epoxy-4,5,9,12,13,20-hexahydroxy-1-tigliaen-3-one [Compound 42]”: the “Cell count as % of control (Control = no compounds added)” value in experiment [1] is on record as 350 ± 101%. Further, the “Differentiation endpoint (endpoint concentration in dilution series for induction of macrophage phenotype)” value (from here on “Differentiation endpoint”) in experiment [2] came to 1 ng/mL. For the same molecule, the IL-1β level in experiment [3] (Donor 1, 3 ng/mL) worked out at 2.6 ± 0.6 pg/mL; in experiment [3] (Donor 1, 30 ng/mL) it was 16.8 ± 1.2 pg/mL; in experiment [3] (Donor 1, 300 ng/mL) it was 41.3 ± 1.2 pg/mL; in experiment [3] (Donor 2, 3 ng/mL), 21.7 ± 7.5 pg/mL; in experiment [3] (Donor 2, 30 ng/mL) it was 71.2 ± 6.0 pg/mL; in experiment [3] (Donor 2, 300 ng/mL), 137.8 ± 10.9 pg/mL. For the same molecule, the IL-6 level in experiment [3] (Donor 1, 3 ng/mL) came out at 8.1 ± 6.4 pg/mL; in experiment [3] (Donor 1, 30 ng/mL) it was 32.1 ± 6.7 pg/mL; in experiment [3] (Donor 1, 300 ng/mL), 71 ± 4.6 pg/mL; in experiment [3] (Donor 2, 3 ng/mL), 30.4 ± 11.8 pg/mL; in experiment [3] (Donor 2, 30 ng/mL), 23.6 ± 0.8 pg/mL; in experiment [3] (Donor 2, 300 ng/mL) it was 69.3 ± 1.8 pg/mL. For the same molecule, the IL-8 level worked out at 3013 ± 377 pg/mL in experiment [3] (Donor 1, 3 ng/mL); 16389 ± 884 pg/mL in experiment [3] (Donor 1, 30 ng/mL); 17425 ± 680 pg/mL in experiment [3] (Donor 1, 300 ng/mL); 7885 ± 2516 pg/mL in experiment [3] (Donor 2, 3 ng/mL); 28176 ± 37 pg/mL in experiment [3] (Donor 2, 30 ng/mL); 32925 ± 552 pg/mL in experiment [3] (Donor 2, 300 ng/mL). The TNFα level amounted to 45.8 ± 55.2 pg/mL in experiment [3] (Donor 1, 3 ng/mL); 271.9 ± 22.4 pg/mL in experiment [3] (Donor 1, 30 ng/mL); 267.5 ± 11.9 pg/mL in experiment [3] (Donor 1, 300 ng/mL); 109.5 ± 29.3 pg/mL in experiment [3] (Donor 2, 3 ng/mL); 354.2 ± 6.3 pg/mL in experiment [3] (Donor 2, 30 ng/mL); 631.6 ± 16.9 pg/mL in experiment [3] (Donor 2, 300 ng/mL). Moreover, in the experiment with mouse skin, the “scarring of the healed site” value is listed as “minimal scarring”. Further, the “diameter of affected area of skin” value with mouse skin is “approximately 1 cm”.
Consider “12,13-dibutanoyl-6,7-epoxy-4,5,9,12,13,20-hexahydroxy-1-tigliaen-3-one [Compound 27]”, for which the “% closure compared to control” value is reported as 158% in experiment [4] (1000 ng/mL) and 130% in experiment [5] (2000 ng/mL).
Regarding `CCCCCC(=O)OC1C(C)C2(O)C(C3OC3(CO)C(O)C3(O)C(=O)C(C)=CC32)C2C(C)(C)C12OC(=O)C(C)CC` (centres unmarked) [Compound 5, 12-hexanoyl-13-(2-methylbutanoyl)-6,7-epoxy-4,5,9,12,13,20-hexahydroxy-1-tigliaen-3-one], the “% closure compared to control” value in experiment [5] (30 ng/mL) is listed as 209%; in experiment [5] (200 ng/mL), 300%. In addition, in experiment [1], the “Cell count as % of control (Control = no compounds added)” value was 218 ± 21%. The “Differentiation endpoint” value in experiment [2] came to 1 ng/mL. Besides, the IL-1β level in experiment [3] (Donor 1, 3 ng/mL) turned out to be 2.1 ± 0.1 pg/mL; in experiment [3] (Donor 1, 30 ng/mL), 15.7 ± 0.9 pg/mL; in experiment [3] (Donor 1, 300 ng/mL), 44 ± 1.6 pg/mL; in experiment [3] (Donor 2, 3 ng/mL) it was 8.1 ± 2.8 pg/mL; in experiment [3] (Donor 2, 30 ng/mL), 43.6 ± 6.1 pg/mL; in experiment [3] (Donor 2, 300 ng/mL) it was 114.9 ± 2.4 pg/mL. Also, the IL-6 level was found to be 12.4 ± 0.2 pg/mL in experiment [3] (Donor 1, 3 ng/mL); 33.6 ± 0.6 pg/mL in experiment [3] (Donor 1, 30 ng/mL); 77.5 ± 9.1 pg/mL in experiment [3] (Donor 1, 300 ng/mL); 14.9 ± 1.1 pg/mL in experiment [3] (Donor 2, 3 ng/mL); 12.5 ± 1.2 pg/mL in experiment [3] (Donor 2, 30 ng/mL); 51.9 ± 1.3 pg/mL in experiment [3] (Donor 2, 300 ng/mL). Besides, the IL-8 level in experiment [3] (Donor 1, 3 ng/mL) is 4924 ± 366 pg/mL; in experiment [3] (Donor 1, 30 ng/mL), 17190 ± 55 pg/mL; in experiment [3] (Donor 1, 300 ng/mL), 17275 ± 40 pg/mL; in experiment [3] (Donor 2, 3 ng/mL) it was 4765 ± 999 pg/mL; in experiment [3] (Donor 2, 30 ng/mL), 26288 ± 260 pg/mL; in experiment [3] (Donor 2, 300 ng/mL), 33870 ± 2532 pg/mL. Also, the TNFα level in experiment [3] (Donor 1, 3 ng/mL) amounted to 85.8 ± 8.4 pg/mL; in experiment [3] (Donor 1, 30 ng/mL) it was 289.9 ± 18.6 pg/mL; in experiment [3] (Donor 1, 300 ng/mL), 306.4 ± 9.0 pg/mL; in experiment [3] (Donor 2, 3 ng/mL) it was 53.9 ± 9.0 pg/mL; in experiment [3] (Donor 2, 30 ng/mL) it was 223 ± 11.2 pg/mL; in experiment [3] (Donor 2, 300 ng/mL), 620.9 ± 66.5 pg/mL. In the experiment on mouse skin, the “scarring of the healed site” value is recorded as “minimal scarring”. Moreover, the “diameter of affected area of skin” value in the experiment on mouse skin is recorded as “approximately 1 cm”.
Regarding `CCCC(=O)OC1C(C)C2(O)C(C3OC3(CO)C(O)C3(O)C(=O)C(C)=CC32)C2C(C)(C)C12OC(=O)C(C)CC` (centres unmarked) [Compound 8, 12-butanoyl-13-(2-methylbutanoyl)-6,7-epoxy-4,5,9,12,13,20-hexahydroxy-1-tigliaen-3-one], in experiment [4] (200 ng/mL), the “% closure compared to control” value turned out to be 190%. Besides, the “Differentiation endpoint” value in experiment [2] is given as 10 ng/mL.
